Source: patent publication US12692257B2, “2,4,6-tri-substituted pyrimidine compounds as ATR kinase inhibitors” (BEIJING TIDE PHARMACEUTICAL CO., LTD., priority 2020, dated 2026)
Read-outs that look alike come from different tables or passages of the source.

How the values were obtained:
ATR kinase = ATR kinase (Homo sapiens, UniProt Q13535); assay: Assay of ATR kinase activity (time-resolved fluorescence, phosphorylation of p53-derived protein); format: biochemical
Protocol: Biotinylated protein derived from p53 (Eurofins, art. No.: 14-952) was phosphorylated with ATR kinase. The amount of phosphorylated protein was determined by time-resolved fluorescence in this assay. The amount of phosphorylated protein was detected by anti-p53-phospho-(serine 15)-K-specific antibody (Cisbio, art. No.: 61GSTDLA) and d2 labeled anti-GST antibody (Cisbio, art. No. 61P08KAE). Before the assay, the following working solutions were formulated as required: 1×reaction buffer (20 mM HEPES PH8.0, 1% glycerol, 0.01% Brij-35), dilution buffer (20 mM HEPES PH8.0, 1% glycerol, 0.01% Brij-35, 5 mM DTT and 1% BSA), stop solution (20 mM HEPES PH8.0, 1% glycerol, 0.01% Brij-35, 250 mM EDTA), detection buffer (50 mM HEPES pH7.0, 150 mM NaCl, 267 mM KF, 0.1% sodium cholate, 0.01% Tween-20, 0.0125% sodium azide). The reagents used above were purchased from Sigma or Invitrogen, except for those whose manufacturers were mentioned.
Operations were as follows:
4× serially diluted compound solutions were prepared with 1× reaction buffer to give 9 compound solutions with different concentrations, and 2.5 μL of the 4× serially diluted compound solutions were added to a 384-well analysis plate (784075, Greiner). 4×p53 substrate working solution (40 nM) was prepared with 1× reaction buffer, and 2.5 μL of the 4×p53 substrate working solution was added to a 384-well analysis plate. 4×ATR/ATRIP working solution (12.8 ng/μL) was prepared with dilution buffer, and 2.5 μL of the 4×pATR/ATRIP working solution was added to a 384-well analysis plate. 4×ATP working solution (2 mM) was prepared with deionized water, and 2.5 μL of the 4×ATP working solution was added to a 384-well analysis plate. The plates were incubated at room temperature in dark for 30 minutes. 5 μL of stop solution was added to the 384 analysis plates. Finally, 5 μL of assay mixture (0.084 ng/μL Anti-phospho-p53(ser15)-K and 5 ng/μL Anti-GST-d2) was added to the 384 well analysis plates, and incubated at room temperature overnight. The fluorescence signal was detected with ENVISION (Perkinelmer) instrument (excitation wavelength: 320 nm, emission wavelength: 665 nm and 615 nm). The inhibition rate in each well was calculated by the fluorescence intensity value in each well:ER (Emission Ratio)=(Fluorescence intensity at 665 nm/Fluorescence intensity at 615 nm); inhibition rate=(ER of positive−ER of assay compound)/(ER of positive−ER of negative)×100%. IC50 values of compounds were calculated by standard software for parameter fitting (GraphPad Prism 6.0).

TOV21G (ovarian cancer) = assay: Cell proliferation inhibition in vitro, CellTiter-Glo, TOV21G; format: cell-based; settings: Homo sapiens, read-out: TOV21G/IC50/μM
Protocol: (§1) By detecting the effect of compounds on cell activity in vitro in tumor cell lines TOV21G (ovarian cancer) and MV4-11 (leukemia), the inhibitory effect of compounds on cell proliferation was studied in this assay.
(§2) TOV21G cells and MV4-11 cells were purchased from American Type Culture Collection (ATCC).
TOV21G cells were cultured in MCDB105/M199 medium (containing 15% of FBS), and used for assaying when the cell confluence reached 85% or more. About 1000 cells were inoculated in each well of a 96-well culture plate, and cultured for 24 hours. Different concentrations (0-10 μM) of compounds to be assayed were added to treat the cells. Each group was assayed in triplicate. Blank wells (containing medium only) and control wells (inoculated cells without being treated with drug) were set. Cells were cultured for 120 hours. 40 μL of Cell Titer-Glo solutions (Promega, #G7573) were added to each well, and the cells were incubated with shaking for 20 min in the dark. 100 μL of solution was transferred from each well to a 96-well blank plate (Corning, #3917), and the luminescence value was read by Biotek Synergy H1 multifunctional microplate reader.

MV4-11 (leukemia) = assay: Cell proliferation inhibition in vitro, CellTiter-Glo, MV4-11; format: cell-based; settings: Homo sapiens, read-out: MV4-11/IC50/μM
Protocol: as §1, §2
MV-4-11 cells were cultured in IMDM medium (containing 20% of FBS). About 10,000 cells were inoculated in each well of a 96-well culture plate, and treated by adding different concentrations (0-10 μM) of compounds to be assayed. Each group was assayed in triplicate. Blank wells (containing medium only) and control wells (inoculated cells without being treated with drug) were set. Cells were cultured for 120 hours. 40 μL of Cell Titer-Glo solutions were added to each well, and the cells were incubated with shaking for 20 min in the dark. 100 μL of solution was transferred from each well to a 96-well blank plate, and the luminescence value was read by Biotek Synergy HI multifunctional microplate reader. Inhibition rate (%)=100%×(control well−assay well)/(control well−blank well)

[1] = TOV21G cells, 120 hours, CellTiter-Glo
[2] = MV4-11 cells, 120 hours, CellTiter-Glo

Sequence of ATR kinase (Q13535 whole entry): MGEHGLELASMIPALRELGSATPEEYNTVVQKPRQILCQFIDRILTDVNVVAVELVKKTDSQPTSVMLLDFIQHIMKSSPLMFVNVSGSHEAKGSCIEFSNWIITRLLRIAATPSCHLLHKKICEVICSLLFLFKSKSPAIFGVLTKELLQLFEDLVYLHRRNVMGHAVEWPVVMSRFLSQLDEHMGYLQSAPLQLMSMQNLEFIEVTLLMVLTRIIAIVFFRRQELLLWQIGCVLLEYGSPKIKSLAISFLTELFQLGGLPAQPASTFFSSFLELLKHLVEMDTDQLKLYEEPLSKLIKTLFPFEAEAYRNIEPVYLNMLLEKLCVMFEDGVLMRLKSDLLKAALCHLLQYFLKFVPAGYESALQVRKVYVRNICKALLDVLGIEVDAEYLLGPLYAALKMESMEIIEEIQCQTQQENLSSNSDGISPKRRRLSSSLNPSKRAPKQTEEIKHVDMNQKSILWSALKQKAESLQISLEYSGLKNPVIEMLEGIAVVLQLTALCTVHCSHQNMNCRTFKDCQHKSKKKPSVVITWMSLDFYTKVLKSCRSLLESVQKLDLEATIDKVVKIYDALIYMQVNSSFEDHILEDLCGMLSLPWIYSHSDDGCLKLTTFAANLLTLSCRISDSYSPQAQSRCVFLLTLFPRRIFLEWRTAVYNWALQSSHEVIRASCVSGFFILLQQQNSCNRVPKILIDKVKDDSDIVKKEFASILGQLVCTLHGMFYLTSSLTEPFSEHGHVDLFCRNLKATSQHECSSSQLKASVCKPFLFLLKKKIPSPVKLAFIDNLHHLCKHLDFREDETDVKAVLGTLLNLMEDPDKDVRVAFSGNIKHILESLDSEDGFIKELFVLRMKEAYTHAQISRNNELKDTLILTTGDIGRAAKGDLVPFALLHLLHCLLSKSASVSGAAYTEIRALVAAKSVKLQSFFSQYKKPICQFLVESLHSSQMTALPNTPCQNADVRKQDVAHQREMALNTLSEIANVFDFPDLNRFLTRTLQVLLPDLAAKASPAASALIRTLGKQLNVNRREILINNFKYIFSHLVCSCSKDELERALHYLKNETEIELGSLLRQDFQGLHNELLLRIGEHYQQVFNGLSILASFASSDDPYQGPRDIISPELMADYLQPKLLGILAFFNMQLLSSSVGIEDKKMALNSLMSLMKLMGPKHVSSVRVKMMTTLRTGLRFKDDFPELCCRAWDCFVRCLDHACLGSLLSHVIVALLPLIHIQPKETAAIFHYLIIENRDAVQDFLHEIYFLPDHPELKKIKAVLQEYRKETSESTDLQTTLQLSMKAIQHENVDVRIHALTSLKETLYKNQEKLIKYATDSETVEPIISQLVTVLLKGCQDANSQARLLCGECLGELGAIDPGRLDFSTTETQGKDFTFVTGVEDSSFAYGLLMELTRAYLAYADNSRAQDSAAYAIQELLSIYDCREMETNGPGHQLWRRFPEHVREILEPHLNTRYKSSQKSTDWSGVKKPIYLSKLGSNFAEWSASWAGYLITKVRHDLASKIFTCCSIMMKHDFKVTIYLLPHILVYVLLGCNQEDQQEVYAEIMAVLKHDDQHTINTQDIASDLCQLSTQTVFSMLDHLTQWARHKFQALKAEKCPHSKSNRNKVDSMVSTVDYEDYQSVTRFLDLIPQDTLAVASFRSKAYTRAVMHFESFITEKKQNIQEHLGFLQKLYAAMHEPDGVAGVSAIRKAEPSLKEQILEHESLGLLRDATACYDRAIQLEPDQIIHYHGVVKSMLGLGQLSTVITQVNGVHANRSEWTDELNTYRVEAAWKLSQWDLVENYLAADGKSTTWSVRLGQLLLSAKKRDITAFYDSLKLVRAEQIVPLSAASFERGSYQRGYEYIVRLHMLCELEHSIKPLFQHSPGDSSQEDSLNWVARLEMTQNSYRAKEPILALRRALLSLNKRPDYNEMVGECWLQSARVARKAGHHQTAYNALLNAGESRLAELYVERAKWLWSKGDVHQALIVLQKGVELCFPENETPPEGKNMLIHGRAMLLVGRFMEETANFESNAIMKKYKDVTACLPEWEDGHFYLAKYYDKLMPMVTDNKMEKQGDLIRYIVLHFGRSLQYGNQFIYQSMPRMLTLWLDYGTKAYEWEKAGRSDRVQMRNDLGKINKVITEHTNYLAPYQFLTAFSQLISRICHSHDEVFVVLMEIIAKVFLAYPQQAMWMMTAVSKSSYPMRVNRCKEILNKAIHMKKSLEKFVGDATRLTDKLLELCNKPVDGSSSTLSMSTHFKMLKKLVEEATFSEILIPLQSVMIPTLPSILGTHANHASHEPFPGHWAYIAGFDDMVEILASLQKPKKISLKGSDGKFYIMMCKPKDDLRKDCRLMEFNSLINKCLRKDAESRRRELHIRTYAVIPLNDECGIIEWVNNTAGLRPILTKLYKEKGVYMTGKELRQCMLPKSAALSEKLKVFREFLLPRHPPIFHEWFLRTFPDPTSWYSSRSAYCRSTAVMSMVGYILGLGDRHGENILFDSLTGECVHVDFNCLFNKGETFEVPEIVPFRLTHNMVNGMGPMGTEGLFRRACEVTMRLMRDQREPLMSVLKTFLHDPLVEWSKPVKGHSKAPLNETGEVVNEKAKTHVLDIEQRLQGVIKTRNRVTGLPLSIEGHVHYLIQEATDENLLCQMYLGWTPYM
Sequence of ATR kinase (Q8WXE1 whole entry partner): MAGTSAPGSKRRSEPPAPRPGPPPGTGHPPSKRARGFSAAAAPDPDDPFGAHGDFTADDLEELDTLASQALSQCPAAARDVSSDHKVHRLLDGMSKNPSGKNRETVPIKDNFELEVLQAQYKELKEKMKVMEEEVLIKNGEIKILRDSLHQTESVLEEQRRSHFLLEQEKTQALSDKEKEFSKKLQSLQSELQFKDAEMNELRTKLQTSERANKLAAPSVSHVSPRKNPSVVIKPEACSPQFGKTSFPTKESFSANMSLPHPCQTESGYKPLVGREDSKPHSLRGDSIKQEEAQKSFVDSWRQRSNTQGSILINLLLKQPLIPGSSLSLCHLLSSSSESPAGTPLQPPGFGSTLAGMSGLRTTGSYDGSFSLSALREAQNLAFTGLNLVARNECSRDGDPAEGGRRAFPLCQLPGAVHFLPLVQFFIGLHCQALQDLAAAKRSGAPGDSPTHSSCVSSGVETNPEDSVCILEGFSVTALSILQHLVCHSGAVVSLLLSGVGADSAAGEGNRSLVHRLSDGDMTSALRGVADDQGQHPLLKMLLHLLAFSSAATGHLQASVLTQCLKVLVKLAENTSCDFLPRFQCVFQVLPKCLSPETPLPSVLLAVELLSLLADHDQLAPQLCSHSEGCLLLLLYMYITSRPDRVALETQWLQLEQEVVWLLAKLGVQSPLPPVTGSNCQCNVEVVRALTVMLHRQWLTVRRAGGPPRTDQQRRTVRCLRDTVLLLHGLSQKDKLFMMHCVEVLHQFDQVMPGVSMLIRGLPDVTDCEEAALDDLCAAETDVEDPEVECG

CNc1nc2ccccc2n1-c1nc(-c2c(C)nn(-c3cncc(C#N)c3)c2C)cc(N2CCOC[C@H]2C)n1 [Compound B4]
IC50 (ATR kinase): 17 nM
IC50 (TOV21G (ovarian cancer); [1]): 0.306 µM
IC50 (MV4-11 (leukemia); [2]): 0.25 µM

Cc1nn(-c2cnccc2Cl)c(C)c1-c1cc(N2CCOC[C@H]2C)nc(-c2cc(F)cc3[nH]ccc23)n1 [Compound A10]
IC50 (ATR kinase): 20 nM
IC50 (TOV21G (ovarian cancer); [1]): 0.556 µM
IC50 (MV4-11 (leukemia); [2]): 0.206 µM

Cc1nn(-c2ccc(=O)[nH]c2)c(C)c1-c1cc(N2CCOC[C@H]2C)nc(-n2c(NCCO)nc3ccccc32)n1 [Compound B13]
IC50 (ATR kinase): 5 nM

Cc1nn(-c2cccnn2)c(C)c1-c1cc(N2CCOC[C@H]2C)nc(-c2cc(F)cc3[nH]ccc23)n1 [Compound A16]
IC50 (ATR kinase): 1 nM
IC50 (TOV21G (ovarian cancer); [1]): 0.166 µM
IC50 (MV4-11 (leukemia); [2]): 0.082 µM

CNc1nc2ccccc2n1-c1nc(-c2c(C)nn(-c3ccc(=O)[nH]c3)c2C)cc(N2CCOC[C@H]2C)n1 [Compound B9]
IC50 (ATR kinase): 3 nM
IC50 (TOV21G (ovarian cancer); [1]): 0.226 µM
IC50 (MV4-11 (leukemia); [2]): 0.157 µM

CNc1nc2ccccc2n1-c1nc(-c2c(C)nn(-c3ccc(OC)nc3)c2C)cc(N2CCOC[C@H]2C)n1 [Compound B7]
IC50 (ATR kinase): 62 nM
IC50 (TOV21G (ovarian cancer); [1]): 0.544 µM
IC50 (MV4-11 (leukemia); [2]): 0.549 µM

CCc1cncc(-n2nc(C)c(-c3cc(N4CCOC[C@H]4C)nc(-c4cc(F)cc5[nH]ccc45)n3)c2C)c1 [Compound A12]
IC50 (ATR kinase): 36 nM
IC50 (MV4-11 (leukemia); [2]): 0.801 µM

Cc1c(-c2cc(N3CCOC[C@H]3C)nc(-c3ccnc4[nH]ccc34)n2)c(C(F)(F)F)nn1-c1cncc(F)c1 [Compound A20]
IC50 (ATR kinase): 11 nM
IC50 (TOV21G (ovarian cancer); [1]): 0.284 µM
IC50 (MV4-11 (leukemia); [2]): 0.528 µM

CNc1nc2ccccc2n1-c1nc(-c2c(C)nn(-c3ccc(C#N)nc3)c2C)cc(N2CCOC[C@H]2C)n1 [Compound B2]
IC50 (ATR kinase): 22 nM
IC50 (TOV21G (ovarian cancer); [1]): 0.278 µM
IC50 (MV4-11 (leukemia); [2]): 0.133 µM

Cc1nn(-c2cncc(F)c2)c(C)c1-c1cc(N2CCOC[C@H]2C)nc(-n2c(N)nc3ccccc32)n1 [Compound B12]
IC50 (ATR kinase): 3 nM
IC50 (TOV21G (ovarian cancer); [1]): 0.257 µM
IC50 (MV4-11 (leukemia); [2]): 0.253 µM

Cc1ncccc1-n1nc(C)c(-c2cc(N3CCOC[C@H]3C)nc(-c3cc(F)cc4[nH]ccc34)n2)c1C [Compound A8]
IC50 (ATR kinase): 9 nM
IC50 (TOV21G (ovarian cancer); [1]): 0.274 µM
IC50 (MV4-11 (leukemia); [2]): 0.382 µM

CNc1nc2ccccc2n1-c1nc(-c2c(C)nn(-c3cccnc3)c2C)cc(N2CCOC[C@H]2C)n1 [Compound B6]
IC50 (ATR kinase): 13 nM
IC50 (TOV21G (ovarian cancer); [1]): 0.483 µM
IC50 (MV4-11 (leukemia); [2]): 0.439 µM

Cc1nn(-c2cncc(C(N)=O)c2)c(C)c1-c1cc(N2CCOC[C@H]2C)nc(-c2cccc3[nH]ccc23)n1 [Compound A24]
IC50 (ATR kinase): 1 nM
IC50 (TOV21G (ovarian cancer); [1]): 0.22 µM
IC50 (MV4-11 (leukemia); [2]): 0.18 µM

Cc1nn(-c2cncc(F)c2)c(C)c1-c1nc(-c2cccc3[nH]ccc23)nc(N2CCOC[C@H]2C)n1 [Compound C1]
IC50 (ATR kinase): 18 nM
IC50 (TOV21G (ovarian cancer); TOV21G, 120 h): 0.349 µM
IC50 (MV4-11 (leukemia); MV4-11, 120 h): 0.903 µM

Cc1nn(-c2cccnc2)c(C)c1-c1cc(N2CCOC[C@H]2C)nc(-c2cc(F)cc3[nH]ccc23)n1 [Compound A4]
IC50 (ATR kinase): 10 nM
IC50 (TOV21G (ovarian cancer); [1]): 0.313 µM
IC50 (MV4-11 (leukemia); [2]): 0.193 µM

COc1cncc(-n2nc(C)c(-c3cc(N4CCOC[C@H]4C)nc(-c4cc(F)cc5[nH]ccc45)n3)c2C)c1 [Compound A1]
IC50 (ATR kinase): 11 nM
IC50 (MV4-11 (leukemia); [2]): 0.658 µM

CNc1nc2ccccc2n1-c1nc(-c2c(C)nn(-c3cncc(C(N)=O)c3)c2C)cc(N2CCOC[C@H]2C)n1 [Compound B10]
IC50 (ATR kinase): 5 nM
IC50 (TOV21G (ovarian cancer); [1]): 0.219 µM
IC50 (MV4-11 (leukemia); [2]): 0.287 µM

Cc1nn(-c2ccc(=O)[nH]c2)c(C)c1-c1cc(N2CCOC[C@H]2C)nc(-c2cc(F)cc3[nH]ccc23)n1 [Compound A7]
IC50 (ATR kinase): 6 nM
IC50 (TOV21G (ovarian cancer); [1]): 0.33 µM
IC50 (MV4-11 (leukemia); [2]): 0.1 µM

Cc1nn(-c2cnccn2)c(C)c1-c1cc(N2CCOC[C@H]2C)nc(-c2cc(F)cc3[nH]ccc23)n1 [Compound A25]
IC50 (ATR kinase): 7 nM
IC50 (TOV21G (ovarian cancer); [1]): 0.53 µM
IC50 (MV4-11 (leukemia); [2]): 0.46 µM

Cc1nn(-c2cncc(F)c2)c(C)c1-c1cc(N2CCOC[C@H]2C)nc(-n2c(NCCO)nc3ccccc32)n1 [Compound B11]
IC50 (ATR kinase): 15 nM
IC50 (TOV21G (ovarian cancer); [1]): 0.276 µM
IC50 (MV4-11 (leukemia); [2]): 0.24 µM

Cc1nn(-c2cncc(C(F)(F)F)c2)c(C)c1-c1cc(N2CCOC[C@H]2C)nc(-c2cc(F)cc3[nH]ccc23)n1 [Compound A13]
IC50 (ATR kinase): 88 nM
IC50 (MV4-11 (leukemia); [2]): 2.2 µM
